This is an account of results in ChEMBL document CHEMBL3988442, “University of Dundee, Small-Polar-MMV Screening Library” (2021).

This assay relates to Mycobacterium tuberculosis. As to the kind of experiment: Cornell M. t heat shock assay. The format is functional, organism-based. The following applies: for IC50: Mycobacterium tuberculosis.

Some results are limits rather than exact numbers.

As to `O=C(CCC(=O)N1CCC(c2noc3cc(F)ccc23)CC1)NC1CC1`, the IC50 – broadly, the point on the concentration scale where inhibition reaches its midpoint – was over 100 µM.
The same measure, in the same setting: the result for `COC(=O)[C@H](CCSC)NC(=O)Cn1ccc2c(Cl)cccc21` reads 70.7 µM; that for `Cc1cc(NCc2ccccc2)nc2[nH]nc(N)c12`, 79.8 µM.
Take `Cc1cc(NCc2ccco2)nc2[nH]nc(N)c12`: the IC50 was over 100 µM.
`Cc1cc(O)cc(=O)n1CCCC(=O)Nc1n[nH]c2cc(Br)ccc12` gave an IC50 of over 100 µM.
`Cc1cc(O)cc(=O)n1CCCC(=O)Nc1n[nH]c2cccc(F)c12` gave a half-inhibitory concentration (IC50) of over 100 µM.
`COc1cccc2sc(N3CCN(C(=O)c4cc(C)on4)CC3)nc12` had a half-inhibitory concentration (IC50) of over 100 µM.
`O=C(NCC(O)c1ccsc1)Nc1cccs1` (configuration not stated) had a half-maximal inhibitory concentration (IC50) of 67.5 µM.
`O=S(=O)(Nc1cnc(N2CCCC2)nc1)c1ccc(OC(F)(F)F)cc1` had an IC50 of over 100 µM.
Molecule `O=C(NCCC(O)c1ccoc1)Nc1cccs1` (configuration not stated) showed a half-maximal inhibitory concentration (IC50) of over 100 µM.
In turn, `Cc1nc(-c2ccccc2)cc2nn(CC(N)=O)c(=O)n12` gave an IC50 of over 100 µM.
`CCOc1cccc2c1OCC(=O)N(c1ccc(N(C)C)cc1)C2` gave an IC50 of 44.1 µM. That is a double-digit micromolar value.
As for `Cc1cnc(NC(=O)c2csc(NCC(C)C)n2)s1`, the IC50 is 1.99 µM.
`CCn1nc(C)c(CNC(=O)c2nnc3ccc(Cl)cc3n2)c1C` showed a 50% inhibitory concentration (IC50) of 17.3 µM.
Turning to `CCCNC(=O)C(C)n1nc(-c2ccc(C)o2)cc(N)c1=O` (configuration not stated), the IC50 was over 100 µM.
The same measure, in the same setting: the figure for `Cc1ccccc1OC1CCN(CC(=O)Nc2cn(C)nc2C)CC1` is over 100 µM; for `Cc1cc(Nc2ccc(F)cn2)cc(C2CCN(Cc3ncc[nH]3)C2)n1` (configuration not stated) it is over 100 µM.
For the molecule `Cc1cc2ccccc2n1CCC(=O)N1CCN(C)CC1C(N)=O` (configuration not stated), the IC50 was over 100 µM.
Same read-out and setting: the result for `CC(C)Cn1nc(-c2ccc(C(=O)O)cc2)cc1-c1ccc(F)cc1` reads 97.1 µM; that for `Cn1ccnc1-c1nc(NC2CCCC2)ncc1-c1cccc(F)c1`, 40.3 µM.
Molecule `COc1ccc(CNC(Cc2ccsc2)c2ncccc2C)cc1OC` (configuration not stated) had an IC50 of over 49 µM.
Regarding `COc1cccc(CN2CCCC2c2cncc(Nc3nncs3)n2)c1` (configuration not stated), the half-maximal inhibitory concentration (IC50) is 26.9 µM.
`c1ccc(CCN2CCCC2c2cncc(Nc3nncs3)n2)cc1` (configuration not stated) had an IC50 of 25.5 µM.
In turn, `c1nnc(Nc2cncc(C3CCCN3CC3CC3)n2)s1` (configuration not stated) showed an IC50 of 29.8 µM. This IC50 and that of the molecule before are within 1.5-fold of each other.
Turning to `Cc1cccc(CN2CCCC2c2cncc(Nc3nncs3)n2)c1` (configuration not stated), half-maximal inhibition (IC50) was put at 17.1 µM.
In the case of `CNC(=O)C1(C)CN(Cc2cn(C)c3ccc(F)cc23)CCO1` (configuration not stated), the IC50 was over 100 µM.
`Cc1cccc(CNC(Cc2ccsc2)c2nccs2)n1` (configuration not stated) had a half-inhibitory concentration (IC50) of 49.9 µM.
Same read-out and setting: the result for `COCC(=O)N1CCCC1c1cccc(Nc2ncc(C)s2)n1` (configuration not stated) reads over 100 µM.
The molecule `CNc1cc(C2CN(Cc3scnc3C)CCO2)nc(C)n1` (configuration not stated) had an IC50 of over 100 µM.
Molecule `O=C(c1cncs1)N1CCCC1c1ccn[nH]1` (configuration not stated) gave a 50% inhibitory concentration (IC50) of over 100 µM.
On to `COc1cc(C2Nc3cc(Cl)ccc3C3=NCCN32)ccc1O` (configuration not stated), for which the IC50 is over 100 µM.
As for `Nc1cc(-c2cccs2)nn(CC(=O)NCC2CCCCC2)c1=O`, the concentration for half-maximal inhibition (IC50) is over 100 µM.
In turn, `Cc1cc(-c2cnc(NCc3ccccn3)nc2C(C)C)on1` had a half-inhibitory concentration (IC50) of over 100 µM.
Molecule `COc1ccccc1CN1CCc2c(nc(-c3ccccn3)[nH]c2=O)C1` showed an IC50 of 3.35 µM.
With `CC1c2ccc(F)cc2CCN1C(=O)c1[nH]c(=O)[nH]c(=O)c1N` (configuration not stated), the half-maximal inhibitory concentration (IC50) is over 100 µM.
`CC1c2cc(F)ccc2CCN1C(=O)c1[nH]c(=O)[nH]c(=O)c1N` (configuration not stated) had a 50% inhibitory concentration (IC50) of 66.9 µM.
`Cc1[nH]ccc1C(=O)N1CCOCC12CCCC2` gave a concentration for half-maximal inhibition (IC50) of over 100 µM.
`COc1ccc(N2CCC(NCc3csc(C(C)C)n3)CC2)cc1` gave a half-maximal inhibitory concentration (IC50) of over 100 µM.
Molecule `CCOC(=O)C(C)Nc1cccc(COCc2ccco2)c1` (configuration not stated) showed an IC50 of over 100 µM.
`Cc1cc(N2CCOCC2)ccc1NC(C)c1nc(C(C)(C)C)no1` (configuration not stated) showed a half-maximal inhibitory concentration (IC50) of over 100 µM.
Regarding `Cc1cc(N2CCOCC2)ccc1NC(C)c1nc(C(C)C)no1` (configuration not stated), the 50% inhibitory concentration (IC50) is over 100 µM.
`CCN1CCN(c2ccc(NC(C)c3nc(C(C)C)no3)c(C)c2)CC1` (configuration not stated): the 50% inhibitory concentration (IC50) is over 100 µM.
On to `CN1CCN(C(=O)c2cnsn2)c2ccc(F)cc21`, for which the IC50 is 67.4 µM.
The molecule `CCOc1cccc(COC(=O)c2cscn2)n1` showed a half-maximal inhibitory concentration (IC50) of over 100 µM.
With `CC(CCSc1ccccc1)N1CCN(C(=O)c2cccs2)CC1` (configuration not stated), the IC50 is over 100 µM.
As for `CCC(NC(=O)Nc1ccc(OC)c(C)c1)c1ccncc1` (configuration not stated), the IC50 was 49.9 µM.
On the same count and under the same terms, the result for `Cc1cccn2cc(CN3CCCC(c4noc(C5CC5)n4)C3)nc12` (configuration not stated) reads 46.5 µM; that for `O=C(Nc1ccnc2ccnn12)c1ccc(N2CCC(O)CC2)cc1`, 74.1 µM; that for `COCCN(C)c1ccc(NCc2ccsc2)nc1`, over 100 µM.
In turn, `Cn1c(CCN2CCN(CCc3ccccc3)CC2)nc2ccccc21` had an IC50 of over 100 µM.
The molecule `CCNc1ncc(C(=O)NCc2ccc3nsnc3c2)cn1` had an IC50 of over 100 µM.
As for `COc1ccc(OCc2cc(C(=O)N3CCCCO3)n[nH]2)c(Cl)c1`, the IC50 was over 100 µM.
The molecule `Cc1ccccc1C1CCN(CCn2cc(-c3cccc(O)c3)nn2)C1` (configuration not stated) had an IC50 of 78.7 µM.
On to `CC1(c2ccccc2)CCCN(Cc2cncn2C2CC2)C1` (configuration not stated), for which the IC50 is 45.7 µM.
On to `COc1ccc2c(c1)OCC(CNc1cc(N)nc(SC)n1)C2` (configuration not stated), for which half-maximal inhibition (IC50) required 62.6 µM. This IC50 and that of the molecule before are within 1.5-fold of each other.
In turn, `Cc1ccsc1CN(c1nc(CCN)nc2ccccc12)C1CC1` showed an IC50 of 49.6 µM.
For `CCNC(=O)[C@@H]1C[C@H](NC(=O)Cn2ccnc2)CN1Cc1ccsc1`, the IC50 was over 100 µM.
As for `Cc1c(CN(C)c2cc(C3CCCNC3)ncn2)[nH]c2ccccc12` (configuration not stated), the IC50 was over 100 µM.
Molecule `CC(C)c1nc(N2CCC(N3CCCCCC3)CC2)c2cnn(C)c2n1` showed a 50% inhibitory concentration (IC50) of 52.5 µM.
In turn, `COc1cc(-c2cc(NC3CCCC3)nc3[nH]ccc23)nc(N)n1` gave a concentration for half-maximal inhibition (IC50) of 2.7 µM.
Molecule `CSc1nccc(-c2cccc(-c3ccn(CC4COCCO4)n3)c2)n1` (configuration not stated) had an IC50 of 40.3 µM.
For `Cc1noc(NC(=O)c2ccccc2)n1`, the pIC50 (in general, the IC50 on a negative log10 scale, so that one unit is a factor of ten) worked out at 4.405 and 62.6 µM corresponded to half-maximal inhibition (IC50).
`COCCCNC(=O)CN(C)C(=O)c1cc(Cl)ccc1O` gave a pIC50 of under 4 and an IC50 of 87.8 µM.
In turn, `COc1cc(C(=O)Nc2nc(C)no2)cc(OC)c1Br` showed a pIC50 of 4.518 and an IC50 of 21 µM.
Regarding `COc1cc(C(=O)Nc2nc(C)no2)ccc1OC(F)F`, the pIC50 was 4.585 and it took 41.3 µM to reach half-maximal inhibition (IC50).
The like results for `COc1cc(C(=O)Nc2nc(C)no2)cc(Cl)c1OC` were, in that order, 4.499 and 24.8 µM.
The molecule `CCOc1cccc2c1OCC(C(=O)NS(=O)(=O)c1c(C)noc1C)=C2` gave a pIC50 of under 4 and an IC50 of 69.3 µM.
As for `O=C(Nc1nc2c(s1)CNCC2)NC1CCCC1`, the IC50 was over 100 µM.
`CCOc1ccccc1-c1cc(N)[nH]n1` gave an IC50 of 26.4 µM.
`c1nnc(Nc2cncc(C3CCCN3)n2)s1` (configuration not stated) gave an IC50 of 6.43 µM.
As to `CCC(CN1CCOCC1)n1cncc1-c1ccc2c(c1)CCN2CC` (configuration not stated), the half-inhibitory concentration (IC50) is 98.5 µM.
With `COc1ccc(CNC(Cc2ccsc2)c2ccc(C)cn2)cc1OC` (configuration not stated), the half-maximal inhibitory concentration (IC50) was 25.6 µM.
On the same count and under the same terms, the result for `NCC1CCC(c2c(C(=O)NCCO)sc3ccccc23)CC1` (configuration not stated) reads over 100 µM.
Regarding `CC(=O)N1CCC[C@@H](NCc2c[nH]c3ccccc23)[C@@H]1c1ccc(C)s1`, the IC50 was over 100 µM.
Take `CCN1c2ccc(-c3cncn3CC(=O)NC(C)(C)C)cc2CC1C` (configuration not stated): the IC50 is over 100 µM.
For the molecule `Cc1ccc(CNC(c2cccc(F)c2)c2nccn2C)o1` (configuration not stated), the IC50 is over 100 µM.
